Earlier results on one compound are cited in patent US10113200B2, “Genes associated with dasatinib sensitivity” (MEMORIAL SLOAN-KETTERING CANCER CENTER, priority 2012, dated 2018).

This data set relates to patients with chronic phase CML. Conditions: 100 mg once-daily compared with 70 mg twice-daily.

SMILES strings stand for the structures.

For `Cc1nc(Nc2ncc(C(=O)Nc3c(C)cccc3Cl)s2)cc(N2CCN(CCO)CC2)n1` [dasatinib], the safety profile result was “improves the safety profile, particularly decreasing pleural effusion and thrombocytopenia, while maintaining efficacy”.
